{"source": "patent US11092602B2", "about": "“Methods and compositions relating to proteasome inhibitor resistance” (Whitehead Institute for Biomedical Research, priority 2015, dated 2021)", "key": {"T47D cells [1]": {"tested_on": "T47D cells", "test": "Selleck anti-cancer compound library screen, PSMD2 KD versus control T47D cells (resazurin)", "format": "cell-based, human", "conditions": "4 concentrations, 72 hours", "procedure": "After 48 hours the cells were collected, counted, and plated at 1000 cells/well in 384 well plates in duplicates for each cell line. Compounds from the Selleck Chemicals anti-cancer compound library β49 drugs in 4 concentrations; […]) were pinned the next day and viability was measured after 72 hours by the reduction of Resazurin (Ex=530 nm, Em=590 nm).\nThe effect of each drug on viability of cells was calculated by averaging the duplicate experiments. The data is plotted in FIG. 16 as the log2 of the ratio of viability of PSMD2 KD versus control cells (log2 (shPSMD2/Control))."}, "T47D cells [2]": {"tested_on": "T47D cells", "test": "Cell viability of T47D cells with doxycycline-inducible PSMD2 shRNA", "format": "cell-based, human", "experimental": "T47D cells harboring a doxycycline inducible control shRNA (GFP) or a doxycycline-inducible PSMD2 shRNA (TurboRFP) were incubated with doxycycline for 3 days. Cells were then split and grown in the absence of Dox and proteasome inhibitors were then added at various concentrations. Cells were maintained in culture and then counted.\nFor the generation of the T47D Tet-inducible PSMD2 knockdown cell line—the TRIPZ vector with an inducible shRNA targeting PSMD2 was purchased from Dharmacon (clone V3THS_403760). It was introduced to the T47D cells according to manufactures protocol and cells were selected with puromycin 1 μg/ml for one week. The cells were exposed to doxycycline for 24 hours and cells were FACS sorted for the top 10% of most RFP expressing cells (highest expression of shRNA). The cells were further cultured in the absence of doxycycline and PSMD2 knockdown was induced as specified in the relevant Examples.\nRelative cell growth and survival were measured in 96-well microplate format in the shRNA experiments and in 384 well format in the drug toxicity assays, by using the fluorescent detection of resazurin dye reduction as an endpoint (544 nm excitation and 590 nm emission). 2,500 cells in 96 wells format or 1,000 cells in 384 well format were plated 24 hours before compound exposure (for 72 hours or indicated time). Each analysis was performed at least with three replicas."}, "20S proteasome": {"molecular_target": "20S proteasome (Homo sapiens, UniProt P28074)", "test": "Native gel analysis of proteasomal complexes with Suc-LLVY-AMC substrate overlay", "format": "biochemical", "conditions": "12 nM bortezomib for 24 hours", "description": "We first separated 20S and 26S proteasomes on native gels and examined effects on the relative levels of 26S and 20S proteasome complexes. In cells with reduced levels of either PSMC5 or PSMD2, 26S proteasome complexes were reduced and 20S proteasome complexes were increased (FIGS. 2E and 2F). These changes persisted in the presence of bortezomib (FIGS. 2E and 2F). Next, we assayed their activity with a fluorescently labeled substrate.\nProteasomal samples were loaded on a nondenaturing 4% polyacrylamide gel using the protocol described previously (Tsvetkov et al., 2014). Gels were either overlaid with Suc-LLVY-AMC (50 μM) for assessment of proteasomal activity or transferred to nitrocellulose membranes where immunoblotting specific for proteasomal subunits was conducted. Proteasomal activity was assessed by measuring the hydrolysis of Suc-LLVY-AMC by substrate overlay assays in native polyacrylamide gels with 50 mM Tris-HCl, pH 7.8, 5 mM MgCl2, 1 mM DTT, 2 mM ATP, 50 μM Suc-LLVY-AMC peptide, and incubating the gels at 37° C. for 30-60 min. Activity was visualized by transilluminated by a UV light and photographed with BIORAD Chemidoc imaging system."}, "T47D cells [3]": {"tested_on": "T47D cells", "test": "Competition co-culture of shPSMD2-RFP and shControl-GFP T47D cells, FACS and microscopy", "format": "cell-based, human", "conditions": "48 hours", "procedure": "We created two cell lines—one line that expresses red fluorescent protein (turboRFP) and the doxycycline-inducible PSMD2-targeting shRNA and another line that expresses green fluorescent protein (GFP) and a doxycycline-inducible control shRNA (FIG. 6A). First, we induced shRNA expression with doxycycline for 48 hours. After recovery, we mixed shPSMD2-RFP and shControl-GFP cells at different ratios (either 1:1, 1:2, 1:5 or 1:10), adding the cells with reduced PSMD2 as the minority subpopulation. Twenty-four hours after plating, we treated these mixed populations of cells for 48 hours with increasing concentrations of bortezomib (5, 7.5 or 10 nM). We allowed the cells to recover in the absence of bortezomib and then we quantified the red and green cells by FACS analysis (FIG. 6A) and captured representative images by fluorescence microscopy (FIG. 6B).\nThe experiment described in Example 10 was repeated with minor differences using a panel of different proteasome inhibitors: MLN2238, MLN9708, and oprozomib T47D cells harboring a doxycycline inducible control shRNA (GFP) or a doxycycline-inducible PSMD2 shRNA (TurboRFP) were incubated with doxycycline for 3 days. Cells were collected, counted, and plated at a 1:10 ratio of TurboRFP-expressing PSMD2 shRNA cells/GFP expression control shRNA cells in the absence of Dox. Proteasome inhibitors were added at the specified concentrations and cells were maintained in culture. Cells were allowed to recover in the absence of the proteasome inhibitor and then analyzed by FACS (FIG. 8B, top) or visualized by microscopy (FIG. 8B, bottom). In the absence of proteasome inhibitors, the initial plating ratio of these cells (1:10) was maintained over the duration of the experiment (FIG. 8B). […] The effect was concentration-dependent in that higher concentrations elicited more substantial shifts.\ncells were trypsinized in 100 μL Accumax® solution and further diluted into 100 μl PBSx1. The number of cells with red or green fluorescent proteins was measured by MACSQuant® VYB according to manufactures protocol. Images of RFP and GFP were created by overlaying images using Fiji software."}, "[4]": {"tested_on": "relapsed multiple myeloma", "test": "Phase 2 and 3 clinical trials of bortezomib in relapsed multiple myeloma, stratified by sigma score", "format": "in vivo, human", "description": "We analyzed gene expression data from 135 patients with relapsed multiple myeloma who participated in Phase II or III trials of bortezomib (˜2007; Mulligan, G., Mitsiades, et al. (2007) Gene expression profiling and correlation with outcome in clinical trials of the proteasome inhibitor bortezomib. Blood 109, 3177-3188) and determined the sigma score for each cancer. The sigma score for each cancer (prior to treatment) was computed by comparing the expression of each 19S subunit (except PSMC4, which was not included in the analysis for technical reasons) in each cancer with the average expression of that subunit in the total set of cancers (reference level) and determining the number of standard deviations by which each expression level differed from the reference level.\nMethods details: re-treatment gene expression data from relapsed multiple myeloma patients undergoing clinical trials with bortezomib were downloaded from GSE9782 (34). Gene expression data was RMA normalized and log transformed. Sigma scores were calculated from all probes. […] For each group, the time to relapse from bortezomib treatment was plotted as a Kaplan-Meier plot. P-value was calculated using Wilcoxon test."}, "IMR32 and Kelly cells": {"tested_on": "IMR32 and Kelly cells", "test": "CellTiter-Glo viability of IMR32 and Kelly neuroblastoma cells", "format": "cell-based", "conditions": "0.001 um to 0.100 um; 72 hours", "procedure": "IMR32 and Kelly cells were each cultured in the presence of bortezomib at concentrations ranging from 0.001 um to 0.100 um. […] The fold viability relative to culture in the absence of bortezomib was determined for each cell line.\nThe fold viability relative to culture in the absence of the compound was determined for each cell line."}}, "note": "Entries after “also recorded” stand apart in the source; their conditions may differ.", "data": [{"compound": "CC(C)C[C@H](NC(=O)[C@H](Cc1ccccc1)NC(=O)c1cnccn1)B(O)O", "note": "[bortezomib]", "values": [{"measurement": "selective effect on viability, PSMD2 KD versus control cells (log2 (shPSMD2/Control))", "setting": "T47D cells [1]", "result": "selectively reduce viability of control cells versus PSMD2 KD cells"}, {"measurement": "resistance upon doxycycline-induced reduction of PSMD2", "setting": "T47D cells [2]; PSMD2 shRNA versus control", "result": "significantly increased resistance; also recorded: increase in resistance"}, {"measurement": "resistance of cells harboring the PSMD2 shRNA versus parental line (EC50)", "setting": "T47D cells [2]; doxycycline 3 days, 96 hour culture", "result": "considerably more resistant"}, {"measurement": "20S proteasome activity", "setting": "20S proteasome; cells with reduced PSMC5 or PSMD2", "result": "maintained a significant level of 20S proteasome activity"}, {"measurement": "20S proteasome function", "setting": "20S proteasome; control cells", "result": "nearly complete inactivation of 20S proteasome function"}, {"measurement": "shift of surviving cell populations towards shPSMD2-RFP cells", "setting": "T47D cells [3]; 5 nM, ratios 1:1, 1:2, 1:5, 1:10", "result": "substantially shifted the populations of surviving cells"}, {"measurement": "shift of surviving cell populations towards shPSMD2-RFP cells", "setting": "T47D cells [3]; 7.5 nM and 10 nM", "result": "even more substantial shifts"}, {"measurement": "time to progression", "setting": "[4]; 34 patients with reduced expression of at least one 19S subunit versus patients without, p-value=0.0086", "result": "shortened time to progression"}, {"measurement": "progression-free survival", "setting": "[4]; patients with 3-Sigma disease versus sigma score less than 3", "result": "Reduced Progression-Free Survival"}, {"measurement": "effectiveness over dexamethasone control", "setting": "[4]; patients with reduced expression of 19S proteasome subunit(s)", "result": "no significant effectiveness over the dexamethasone control"}, {"measurement": "resistance of IMR32 cells relative to Kelly cells", "setting": "IMR32 and Kelly cells", "result": "increased resistance"}]}]}
